Data taken from patent publication US8680150B2, “Small molecule hematopoietic growth factor mimetic compounds that activate hematopoietic growth factor receptors” (Ligand Pharmaceuticals, Inc., priority 2009, dated 2014).

Tested on: UT7/EPO Cell line
Test: Cell proliferation assay in UT7/EPO cell line (ViaLight Plus)
Assay type: cell-based, human
Settings: compound at 10 uM; efficacy relative to EPO (100%); UT7/EPO cells expressing endogenous EPO receptor, starved of EPO overnight; 72 hours at 37° C.
Experimental: The primary testing for the exemplified compounds was performed in UT7/EPO Cell line. UT7/EPO is human leukemia cell line, obtained from Dr. Norio Komatsu (Blood, Vol 82 (2), pp 456-464, 1993). These cells express endogenous EPO receptor and are dependant upon EPO for growth and proliferation. Briefly, the cells were starved of EPO overnight and plated in 96 or 384 well plates. The compounds were added to the cells at 10 uM concentration. The plates were then incubated at 37° C. for 72 hours. The proliferative effect of the compounds was measured by a commercially available kit from Lonza (ViaLight Plus).

Structure (SMILES)	Activity (%)
COc1ccc(O)c(/C=N/NC(=O)c2cc3cc(O)ccc3[nH]2)c1 [Compound 175, 5-Hydroxyindole-2-carboxyl(2-hydroxy-5-methoxybenzylidene)hydrazide]	4.3%
COCc1cccc(/C=N/NC(=O)c2cc3cc(O)ccc3o2)c1 [Compound 176, 5-Hydroxybenzofuran-2-carboxyl(3-methoxymethylbenzylidene)hydrazide]	19%
CN(C)c1ccc(C(=O)N/N=C/c2cccc(N(C)C)c2)cc1 [Compound 177, 4-Dimethylaminobenz(3-dimethylaminobenzylidene)hydrazide]	9.1%
CCNC(=O)/C=C/c1cccc(/C=N/NC(=O)c2ccc(N(C)C)cc2)c1 [Compound 179, 4-Dimethylaminobenz(2E-ethylaminocarboxyethenylbenzylidene)hydrazide]	4.3%
CN(C)c1ccc(C(=O)N/N=C/c2ccc3c(Cl)c[nH]c3c2)cc1 [Compound 180, 4-Dimethylaminobenz(3-chloro-6-indolidene)hydrazide]	3.2%
Cc1ccccc1/C=C/c1cccc(/C=N/NC(=O)c2ccc(N(C)C)cc2)c1 [Compound 181, 4-Dimethylaminobenz(2E-(2-methylphenyl)ethenylbenzylidene)hydrazide]	4.2%
CN(C)c1ccc(C(=O)N/N=C/c2cccc(/C=C/c3cccc(Cl)c3)c2)cc1 [Compound 182, 4-Dimethylaminobenz(2E-(3-chlorophenyl)ethenylbenzylidene)hydrazide]	11%
CN(C)c1ccc(C(=O)N/N=C/c2cccc(COCc3ccccc3)c2)cc1 [Compound 184, 4-Dimethylaminobenz(3-benzyloxymethylbenzylidene)hydrazide]	21%
CN(C)c1ccc(C(=O)N/N=C/c2cccc(/C=C/c3ccccc3Cl)c2)cc1 [Compound 185, 4-Dimethylaminobenz(2E-(2-chlorophenyl)ethenylbenzylidene)hydrazide]	16%
CN(C)c1ccc(C(=O)N/N=C/c2cccc(/C=C/c3ccc(Cl)cc3)c2)cc1 [Compound 186, 4-Dimethylaminobenz(2E-(4-chlorophenyl)ethenylbenzylidene)hydrazide]	9.6%
COCc1cccc(/C=N/NC(=O)c2ccc(N(C)C)cc2)c1 [Compound 187, 4-Dimethylaminobenz(3-methoxymethylbenzylidene)hydrazide]	17%
Cc1ccccc1COCc1cccc(/C=N/NC(=O)c2ccc(N(C)C)cc2)c1 [Compound 188, 4-Dimethylaminobenz(3-(2-methylbenzyloxy)methylbenzylidene)hydrazide]	5.5%
Cc1ccc(COCc2cccc(/C=N/NC(=O)c3ccc(N(C)C)cc3)c2)cc1 [Compound 189, 4-Dimethylaminobenz(3-(4-methylbenzyloxy)methylbenzylidene)hydrazide]	9.1%
CN(C)c1ccc(C(=O)N/N=C/c2cccc(/C=N/OCc3ccccc3)c2)cc1 [Compound 190, 4-Dimethylaminobenz(3-benzyloxyiminomethylbenzylidene)hydrazide]	20%
O=C(N/N=C/c1cccc(/C=C/c2ccccc2Cl)c1)c1ccc(-n2ccnc2)cc1 [Compound 191, 4-(1-Imidazolyl)benz(2E-(2-chlorophenyl)ethenylbenzylidene)hydrazide]	6.2%
C=CCO/N=C/c1cccc(/C=N/NC(=O)c2ccc(N(C)C)cc2)c1 [Compound 192, 4-Dimethylaminobenz(3-allyloxyiminomethylbenzylidene)hydrazide]	5.3%
COc1cccc(/C=N/NC(=O)c2ccc(-n3ccnc3)cc2)c1 [Compound 193, 4-(1-Imidazolyl)benz(3-methoxybenzylidene)hydrazide]	7.3%
O=C(N/N=C/c1cccc(/C=N/OCc2ccccc2)c1)c1ccc(-n2ccnc2)cc1 [Compound 194, 4-(1-Imidazolyl)benz(3-benzyloxyiminomethylbenzylidene)hydrazide]	5.2%
CN(C)c1ccc(C(=O)N/N=C/c2cccc(OCCO)c2)cc1 [Compound 195, 4-Dimethylaminobenz(3-(2-hydroxyethoxy)benzylidene)hydrazide]	7.3%
O=C(/C=C/c1ccc(-c2ccccc2)cc1)N/N=C/c1ccc(OCCO)cc1 [Compound 198, 2E-(4-Phenylphenyl)acryl(4-(2-hydroxyethoxy)benzylidene)hydrazide]	4.6%
COc1cccc(/C=N/NC(=O)c2ccc(NCCO)cc2)c1 [Compound 199, 4-(2-Hydroxyethylamino)benz(3-methoxybenzylidene)hydrazide]	3.0%
